Patent US10213507B2, “Compositions and methods for treating HIV-associated neurocognitive disorders” (THE FLORIDA INTERNATIONAL UNIVERSITY BOARD OF TRUSTEES, priority 2017, dated 2019)
“Also recorded” adds a separate entry of the source.

Legend:
HIV-1 = assay: HIV infection of CHME-5 microglial cells (p24 ELISA, LTR quantitative real-time PCR); type: cell-based; conditions: WA 0.5 and 1 μM, 7 dpi
Experimental: (§1) FIGS. 6A-6C show Effect of WA on HIV-1 suppression and its cytotoxicity in microglial (CHME-5) cell±HIV. […] (A) p24 study; (B) LTR and (C) Cytotoxicity study: XTT assay was performed on WA treated CHME-5 cells (n=3; *, p≤0.05; ****, p≤0.001; NS-Not Significant).
(§2) Human microglial cells (CHME-5) were infected with HIV and treated with different concentrations of WA (0.5 and 1 μM). Seven days post-infection (dpi), culture supernatant was used for p24 ELISA and cell pellet was used for the […] (LTR) measurement using quantitative real-time PCR.

[1] = test system: in-vitro BBB model (brain microvascular endothelial cells, astrocytes and pericytes); assay: In-vitro BBB model integrity (TEER); type: cell-based, human; conditions: free WA 2 μM in apical chamber, external magnetic field 0.8 T, 3 h
Experimental: (§3) FIGS. 3A-3B provide: A) Effect of WA and MENP on in-vitro BBB integrity: WA (2 μM) and MENPs (100 μg) were added in the upper chamber of the BBB model with magnet (0.8 T) placed underneath the culture plate for 3 h duration. After treatment, Transepithelial Electrical Resistance (TEER) values were calculated and compared with control; B) Aβ1-40 ELISA from supernatant from SHAPP cells: To study WA (2 μM) efficacy and BBB permeability without MENPs, Aβ1-40 specific enzyme-linked immunosorbent assay (ELISA) was performed using supernatant collected from the basal side of the BBB trans-well where SHAPP cells were seeded at the bottom of culture plate. (n=3; NS-Not Significant.)
(§4) In-vitro BBB model was developed using brain microvascular endothelial cells, astrocytes and pericytes. The integrity of BBB was examined by measuring the TEER values before and after addition of free WA (2 μM) and free MENPs (100 μg) to the apical chamber of in vitro BBB model.
Preparation and validation of BBB integrity: Established in vitro BBB model can be used. The BBB model can be constructed using primary endothelial cells (HBMEC), pericytes (HMVP) and astrocytes (HA). BBB formation and intactness can be determined by measuring the TEER using the REMS AutoSampler BBB device and permeability to fluorescein isothiocyanate-dextran (FITC dextran). […]

[2] = test system: Aβ-secretion in SH-APP cells; assay: WA BBB permeability without MENPs: Aβ1-40 ELISA of SH-APP cells in the basal chamber of the BBB trans-well; type: cell-based, human
Experimental: as §3, §4

[3] = test system: Aβ secretion by SH-APP cells; assay: Aβ 1-40 ELISA of culture supernatants of WA treated SH-APP cells; type: cell-based, human
Experimental: (n=3; *, p≤0.05; NS-Not Significant).
Human neuroblastoma cells transfected with APP gene (SH-APP) were cultured with different concentrations of WA (0.5 to 2.5 μM) and the culture supernatants were tested for Aβ 1-40 by ELISA.

[4] = test system: Aβ-production in SH-APP cells; assay: HIV-induced β-amyloid production in SH-APP cells by flow cytometry; type: cell-based, human; conditions: HIV 100 ng 7 days, WA 2 μM 48 hours, Aβ 1-40 specific antibody
Experimental: FIGS. 7A-7D show quantitative analysis of β-amyloid production after 7 days of HIV infection and 48 hours of WA treatment (2 μM) on SH-APP (neuroblastoma cell line) using flow cytometry. An increase in β-amyloid production is observed in cells treated with B) HIV-100 ng; compared to A) Control.

CHME-5 cells = assay: XTT cytotoxicity assay in CHME-5 cells; type: cell-based; conditions: 1 μM WA, 48 hours
Experimental: as §1, §2

HIV = HIV LTR detection in HIV-exposed SH-APP cells; type: cell-based; conditions: WA 2 μm, HIV 100 ng, 1 dpi; 30,000 copies with HIV alone
Source text: (n=3; *, p≤0.05; **, p≤0.01; and ***, p≤0.001.)
AβPP-transfected SH-APP cells are susceptible to HIV infection.

SH-APP cells = assay: MTT cytotoxicity assay in SH-APP cells; type: cell-based, human; conditions: WA 0.5 to 2.5 μM, 48 hours
σ-1 receptor = molecular target: T1, σ-1 receptor (Mus musculus, UniProt O55242); conditions: pre-treatment of mice; cited from earlier work
T1 construct: from tissue; host or cells: whole animal (mice), endogenous receptor

[5] = Release of miR-107 from MENPs under alternating current magnetic field (UV spectroscopy at 260 nm); type: physicochemical; conditions: 30 mins
Experimental: (§5) FIGS. 2A-2B provide miR-107 binding and release. A) % binding of miR-107 with MENP with respect to different concentrations; B) Release kinetics of miR-107 from MENP surface as a function of externally applied alternating current magnetic field strength (60 and 80 Oe) at different time points (10, 20 and 30 min).
(§6) Binding kinetics with respect to different concentrations of miR-107 was performed using 100 μg of MENPs (FIG. 2A). Sample were incubated in phosphate buffered saline (PBS) (pH-7.4) and kept on vertical rotator under constant rotation (200 rpm) for 30 minutes. […] Release kinetics of miR-107 from MENPs was studied using UV spectroscopy at 260 nm. 100 nM of miR-107 was incubated with 100 μg of MENPs in 1 mL PBS (pH 7.4) for 30 mins and its release kinetics performed using alternating current magnetic field via electromagnetic coil at various time points (i.e., 10, 20, and 30 minutes).

[6] = Binding of miR-107 to MENPs; type: physicochemical; conditions: 100 nM miR-107, 100 μg MENPs, PBS pH 7.4, 30 minutes
Experimental: as §5, §6

T1 sequence (O55242 whole entry): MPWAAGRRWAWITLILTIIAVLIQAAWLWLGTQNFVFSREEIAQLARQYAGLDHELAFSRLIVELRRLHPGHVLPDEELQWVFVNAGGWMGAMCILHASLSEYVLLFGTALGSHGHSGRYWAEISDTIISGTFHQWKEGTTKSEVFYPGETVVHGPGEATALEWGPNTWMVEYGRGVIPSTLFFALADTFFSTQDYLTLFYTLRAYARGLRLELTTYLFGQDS

## CC1=C(CO)C(=O)O[C@@H]([C@@H](C)[C@H]2CC[C@H]3[C@@H]4C[C@H]5O[C@]56[C@@H](O)C=CC(=O)[C@]6(C)[C@H]4CC[C@]23C)C1 [WA, 5,6-Epoxy-4,27-dihydroxy-1-oxowitha-2,24-dienolide]
HIV-1; cell pellet
  HIV-1 replication, LTR levels: significant suppression
HIV-1; culture supernatant
  HIV-1 replication, p24 levels: significant suppression
[1]
  TEER values (BBB integrity): no difference in TEER values
[2]; WA 2 μM without MENP in the apical chamber
  Aβ-secretion in SH-APP cells in basal chamber vs untreated control: no changes in the Aβ-secretion
[2]; free WA 2 μM, not bound to MENP, apical chamber
  crossing of the BBB: could not cross the BBB
[3]; 2 µM WA
  β-Amyloid production (Aβ1-40 ELISA): significantly attenuates
[3]; WA 0.5 to 2.5 μM
  Aβ secretion (Aβ 1-40): dose dependent decrease
[4]
  HIV-induced Aβ levels: significantly decreased
CHME-5 cells
  cell viability: > 80%
HIV
  HIV induced LTR copies: 400 copies
SH-APP cells
  cytotoxicity: do not show any cytotoxic effects; also recorded: no significant cytotoxicity

## CN1CCN(CCc2ccc(Cl)c(Cl)c2)CC1.Cl.Cl [BD1063, 1-[2-(3,4-Dichlorophenyl)ethyl]-4-methylpiperazine dihydrochloride]
σ-1 receptor
  cocaine-induced convulsions: significantly attenuated
  cocaine-induced locomotor stimulatory effects: significantly attenuated

## miR-107: microRNA 107, inhibitor of BACE-1 expression; SEQ ID NO: 1 (pre-miRNA), SEQ ID NO: 2 (mature) (AGCAGCAUUGUACAGGGCUAUCA; listed as RNA, chemistry not given here; listed as Homo sapiens)
[5]; 60 Oe alternating current magnetic field
  release of miR-107 from MENPs: 75%
[5]; 100 Hz, 80 Oe alternating current magnetic field
  release of miR-107 from MENPs: ~100%
[6]
  maximum miR-107 binding to MENPs: 70%
